{"source": "patent US20220324865A1", "about": "(Bayer Aktiengesellschaft, priority 2018, published 2022)", "note": "Where a name gives a salt, the structure may show the parent alone."}
{"target": "T1, human EP3 receptor (Homo sapiens, UniProt P43115)", "T1 construct": "expressed in transfected cells; host or cells: CHO K1 (Chinese Hamster Ovary), stably co-transfected with Galpha16 and mitochondrial clytin", "T1 sequence (P43115 1-390)": "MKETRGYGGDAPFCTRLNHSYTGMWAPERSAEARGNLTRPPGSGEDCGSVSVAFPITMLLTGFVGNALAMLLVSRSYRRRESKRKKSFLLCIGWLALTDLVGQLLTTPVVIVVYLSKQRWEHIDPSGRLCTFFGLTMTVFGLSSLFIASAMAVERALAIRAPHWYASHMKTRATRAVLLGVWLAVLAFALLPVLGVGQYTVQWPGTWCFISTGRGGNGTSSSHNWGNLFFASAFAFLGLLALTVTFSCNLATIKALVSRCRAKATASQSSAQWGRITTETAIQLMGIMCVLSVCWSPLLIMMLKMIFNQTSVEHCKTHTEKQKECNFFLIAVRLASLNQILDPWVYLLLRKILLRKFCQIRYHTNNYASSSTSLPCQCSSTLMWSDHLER", "test": "Cellular in vitro assay for determining EP3 receptor activity (human EP3 cell line, sulprostone-stimulated calcium luminescence)", "assay_type": "cell-based", "settings": "CHO cells expressing human EP3 and mitochondrial Clytin; antagonist mode, sulprostone at EC50; read-out: EP3 CHO mtCLY ANTAG IC50", "how_it_was_run": "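Antagonist activity was measured as inhibition of the luminescent calcium signal elicited by EC50 sulprostone, following 10 min compound pretreatment. The cell line was recombinant CHO K1 co-expressing human EP3, Gα16 and the photoprotein Clytin, reconstituted with coelenterazine.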", "units": {"IC50": "nM"}}
{"compound": "CCn1cc(CNC(=O)c2nn3cc(-c4cnc5cccc(C)c5c4)[nH]c(=O)c3c2C(C)C)c(C)n1", "note": "[Example 4-36, N-[(1-Ethyl-3-methyl-1H-pyrazol-4-yl)methyl]-6-(5-methylquinolin-3-yl)-4-oxo-3-(propan-2-yl)-4,5-dihydropyrazolo[1,5-a]pyrazine-2-carboxamide]", "IC50": 0.785}
{"compound": "CC(NC(=O)c1nn2cc(-c3ccc4ccccc4c3)[nH]c(=O)c2c1C#N)c1ccc(Cl)cc1Cl", "note": "(centres unmarked) [Example 3-58, 3-Cyano-N-[1-(2,4-dichlorophenyl)ethyl]-6-(2-naphthyl)-4-oxo-5H-pyrazolo[1,5-a]pyrazine-2-carboxamide]", "IC50": 2.35}
{"compound": "Cc1ccc(-c2[nH]c(=O)c3c(C4CC4)c(C(=O)N[C@@H](c4ccc(F)cc4)C(F)(F)CO)nn3c2F)cc1Cl", "note": "[6-662]", "IC50": 6.1}
{"compound": "O=C(N[C@H](CCO)c1ccc(F)cc1)c1cc2c(=O)[nH]c(-c3ccc4c(c3)CCCC4)cn2n1", "note": "[Example 1-100, N-[(1R)-1-(4-Fluorophenyl)-3-hydroxypropyl]-4-oxo-6-(5,6,7,8-tetrahydronaphthalen-2-yl)-4,5-dihydropyrazolo[1,5-a]pyrazine-2-carboxamide]", "IC50": 0.965}
{"compound": "CC[C@H](C)NC(=O)c1nn2cc(-c3ccc(C)c(Cl)c3)[nH]c(=O)c2c1C(F)(F)F", "note": "[6-190]", "IC50": 2.25}
{"compound": "Cc1ccc(-c2cn3nc(C(=O)NC(C)CN4CCOCC4)c(C4CC4)c3c(=O)[nH]2)cc1C", "note": "(single isomer, unassigned) [6-451]", "IC50": 5.35}
{"compound": "Cc1ccc(-c2cn3nc(C(=O)NC(c4ccc(C(F)(F)F)cc4)C(C)(C)O)c(C4CC4)c3c(=O)[nH]2)cc1C", "note": "(single isomer, unassigned) [6-458]", "IC50": 2.15}
{"compound": "COc1ccc(C(CCO)NC(=O)c2cc3c(=O)[nH]c(-c4ccc(C)c(C(F)(F)F)c4)cn3n2)cc1", "note": "(centres unmarked) [6-32]", "IC50": 7.5}
{"compound": "O=C(NC(CO)c1ccc(F)cc1)c1cc2c(=O)[nH]c(-c3ccc4cccnc4c3)cn2n1", "note": "(centres unmarked) [6-30]", "IC50": 2.15}
{"compound": "CCc1ccc(C(C)NC(=O)c2nn3cc(-c4cnc5cccc(C)c5c4)[nH]c(=O)c3c2C(C)C)cc1", "note": "(centres unmarked) [Example 4-9, N-[1-(4-Ethylphenyl)ethyl]-3-isopropyl-6-(5-methyl-3-quinolyl)-4-oxo-5H-pyrazolo[1,5-a]pyrazine-2-carboxamide]", "IC50": 3.7}
{"compound": "COC[C@@H](NC(=O)c1cc2c(=O)[nH]c(-c3ccc4ccccc4c3)cn2n1)c1ccccc1", "note": "[6-51]", "IC50": 2.65}
{"compound": "Cc1cc(-c2cn3nc(C(=O)N[C@H](C)C4CC4)c(C(F)(F)F)c3c(=O)[nH]2)ccc1Cl", "note": "[6-218]", "IC50": 1.95}
{"compound": "COC[C@@H](NC(=O)c1nn2cc(-c3cnc4cccc(C)c4c3)[nH]c(=O)c2c1C(C)C)c1ccccc1", "note": "[Example 1-87, N-[(1S)-2-Methoxy-1-phenylethyl]-6-(5-methylquinolin-3-yl)-4-oxo-3-(propan-2-yl)-4,5-dihydropyrazolo[1,5-a]pyrazine-2-carboxamide]", "IC50": 2.85}
{"compound": "O=C(N[C@H](CN1CC(F)(F)C1)c1ccccc1)c1cc2c(=O)[nH]c(-c3ccc4ccccc4c3)cn2n1", "note": "[6-544]", "IC50": 1.65}
{"compound": "CC(NC(=O)c1cc2c(=O)[nH]c(-c3ccc4cccnc4c3)cn2n1)c1ccc(F)cc1", "note": "(centres unmarked) [6-27]", "IC50": 2.63}
{"compound": "Cc1cc(-c2cn3nc(C(=O)N[C@@H](c4ccc(F)cc4)C(F)(F)CO)c(C4CC4)c3c(=O)[nH]2)ccc1Cl", "note": "[Example 1-172, 6-(4-Chloro-3-methylphenyl)-3-cyclopropyl-N-[(1S)-2,2-difluoro-1-(4-fluorophenyl)-3-hydroxpropyl]-4-oxo-4,5-dihydropyrazolo[1,5-a]pyrazine-2-carboxamide]", "IC50": 0.86}
{"compound": "CC(C)(C)OC(=O)N1CC(NC(=O)c2cc3c(=O)[nH]c(-c4ccc5c(c4)OCCO5)cn3n2)(c2ccc(F)cc2)C1", "note": "[6-54]", "IC50": 3.35}
{"compound": "Cc1ccc(-c2cn3nc(C(=O)N[C@@H](c4ccc(F)cc4)C(C)(C)O)c(C4CC4)c3c(=O)[nH]2)cc1C(F)(F)F", "note": "[6-246]", "IC50": 5.8}
{"compound": "Cc1cccc2ncc(-c3cn4nc(C(=O)NCCCS(C)(=O)=O)c(C(C)C)c4c(=O)[nH]3)cc12", "note": "[Example 4-35, N-[3-(Methansulfonyl)propyl]-6-(5-methylquinolin-3-yl)-4-oxo-3-(propan-2-yl)-4,5-dihydropyrazolo[1,5-a]pyrazine-2-carboxamide]", "IC50": 1.9}
{"compound": "O=C(NC1(c2ccc(F)cc2)CN(CC(F)(F)F)C1)c1nn2cc(-c3ccc(Cl)c(F)c3)[nH]c(=O)c2c1C1CC1", "note": "[6-103]", "IC50": 0.74}
{"compound": "Cc1ccc(-c2cn3nc(C(=O)N[C@H]4c5ccccc5C[C@@H]4O)cc3c(=O)[nH]2)cc1C", "note": "[Example 1-80, 6-(3,4-Dimethylphenyl)-N-[(1S,2S)-2-hydroxy-2,3-dihydro-1H-inden-1-yl]-4-oxo-4,5-dihydropyrazolo[1,5-a]pyrazine-2-carboxamide]", "IC50": 6.68}
{"compound": "Cc1ccc(-c2cn3nc(C(=O)N[C@@H](c4ccc(F)cc4)C(C)(C)O)c(C)c3c(=O)[nH]2)nc1C", "note": "[6-634]", "IC50": 3.7}
{"compound": "Cc1cccc2ncc(-c3cn4nc(C(=O)NC(C)CC5CC5)c(C(C)C)c4c(=O)[nH]3)cc12", "note": "(centres unmarked) [Example 4-18, N-(1-Cyclopropylpropan-2-yl)-3-isopropyl-6-(5-methylquinolin-3-yl)-4-oxo-4,5-dihydropyrazolo[1,5-a]pyrazine-2-carboxamide]", "IC50": 1.05}
{"compound": "Cc1ccc(-c2cn3nc(C(=O)NCC(O)C(F)F)c(C4CC4)c3c(=O)[nH]2)cc1F", "note": "(single isomer, unassigned) [6-371]", "IC50": 2.7}
{"compound": "O=C(NCCc1ccc(F)cc1)c1cc2c(=O)[nH]c(-c3ccc4ccccc4c3)cn2n1", "note": "[Example 2-7, N-[2-(4-Fluorophenyl)ethyl]-6-(2-naphthyl)-4-oxo-4,5-dihydropyrazolo[1,5-a]pyrazine-2-carboxamide]", "IC50": 4.7}
{"compound": "O=C(N[C@@H](c1ccc(F)cc1)C(F)(F)CO)c1nn2cc(-c3ccc(Cl)c(F)c3)[nH]c(=O)c2c1C1CC1", "note": "[6-95]", "IC50": 1.73}
{"compound": "CN1CC(NC(=O)c2cc3c(=O)[nH]c(-c4ccc5ccccc5c4)cn3n2)(c2ccc(F)cc2)C1", "note": "[Example 1-49, N-[3-(4-Fluorophenyl)-1-methylazetidin-3-yl]-6-(naphthalen-2-yl)-4-oxo-4,5-dihydropyrazolo-[1,5-a]pyrazine-2-carboxamide formic acid salt]", "IC50": 7.65}
{"compound": "COc1ccc2c(c1)C(NC(=O)c1cc3c(=O)[nH]c(-c4ccc5ccccc5c4)cn3n1)CC(C)(C)O2", "note": "(centres unmarked) [Example 2-16, N-[6-Methoxy-2,2-dimethyl-3,4-dihydro-2H-chromen-4-yl]-6-(2-naphthyl)-4-oxo-4,5-dihydropyrazolo[1,5-a]pyrazine-2-carboxamide]", "IC50": 6.2}
{"compound": "O=C(NC(CCO)c1ccc(F)cc1)c1cc2c(=O)[nH]c(-c3ccc4cccnc4c3)cn2n1", "note": "(centres unmarked) [Example 1-62, N-[1-(4-Fluorophenyl)-3-hydroxpropyl]-4-oxo-6-(7-quinolyl)-5H-pyrazolo[1,5-a]pyrazine-2-carboxamide]", "IC50": 3.6}
{"compound": "Cc1ccc(-c2cn3nc(C(=O)NC(CNC(=O)OC(C)(C)C)c4ccc(F)cc4)cc3c(=O)[nH]2)cc1C", "note": "(centres unmarked) [6-42]", "IC50": 4.85}
{"compound": "CC(C)(O)[C@@H](NC(=O)c1nn2cc(-c3cc(F)c(Cl)cc3F)[nH]c(=O)c2c1C1CC1)c1ccc(F)cc1", "note": "[6-584]", "IC50": 7.4}
{"compound": "Cn1cc(CNC(=O)c2nn3cc(-c4ccc5ccccc5c4)[nH]c(=O)c3c2C#N)cn1", "note": "[Example 3-45, 3-Cyano-N-[(1-methyl-1H-pyrazol-4-yl)methyl]-6-(naphthalen-2-yl)-4-oxo-4,5-dihydropyrazolo[1,5-a]pyrazine-2-carboxamide]", "IC50": 8.75}
